Assay results reported in patent US20170105953A1, “METHOD FOR SUPPRESSING DIABETES AND/OR HEPATIC LIPIDS USING TORMENTIC ACID” (priority 2015, published 2017).

Key:
Assay type in all cases: in vivo
[1] = blood parameters in high-fat diet-fed mice; conditions: HF diet-fed C57BL/6J mice, Rosi 0.01 g/kg/day oral gavage 4 weeks
Protocol: For part 2, C57BL/6J mice (4 weeks old) were obtained from the National Laboratory Animal Breeding and Research Center. The mice were divided randomly into two groups after 7 days acclimation. […] The compositions of the experimental diets are given in previous studies. After 8 weeks, the high-fat treated mice were randomly subdivided into four groups (n=9) including PTA1 (0.06 g/kg/day), PTA2 (0.12 g/kg/day) or rosiglitazone (Rosi; 1% methylcellulose, 10 mg/kg body weight) (GlaxoSmithKline) or vehicle and treated by oral gavage one time per day from the 9th to 12th weeks, while the mice were still on the high-fat diet, whereas the CON and high-fat control (HF) mice were treated with vehicle only. At the end, food was withheld from the animals (from 10 p.m. to 10 a.m.). The next day, the mice were sacrificed for blood and tissue collection and analysis. Livers, skeletal muscles, and white adipose tissues (WATs) (including epididymal, mesenteric, and retroperitoneal WAT) were weighed and excised, followed by immediate freezing, and kept at −80° C. for target gene analysis. Heparin (30 units/mL) (Sigma) was added to blood samples. Plasma samples were collected within 30 min by centrifugation at 1600 g for 15 min at 4° C. Plasma was obtained for insulin and leptin assay.
Blood samples (0.8 mL) were collected from the retro-orbital sinus of fasted mice, and the glucose level was analyzed by the glucose oxidase method (model 1500; Sidekick Glucose Analyzer; YSI Inc., Yellow Springs, Ohio, USA). Plasma triglycerides (TG), total cholesterol (TC), and free fatty acids (FFA) were measured using commercial assay kits according to the manufacturer's directions (Triglycerides-E test, Cholesterol-E test, and FFA-C test, Wako Pure Chemical, Osaka, Japan). The levels of insulin and leptin in blood were analyzed by ELISA using a commercial assay kit according to the manufacturer's directions (mouse insulin ELISA kit, Sibayagi, Gunma, Japan; and mouse leptin ELISA kit, Morinaga, Yokohama, Japan).

[2] = system: epididymal WAT and liver tissue; assay: histopathology of epididymal WAT and liver tissue; conditions: HF diet-fed C57BL/6J mice, Rosi 0.01 g/kg/day oral gavage 4 weeks
Description: (§1) For part 2, C57BL/6J mice (4 weeks old) were obtained from the National Laboratory Animal Breeding and Research Center. The mice were divided randomly into two groups after 7 days acclimation. The control (CON) group (n=9) was fed a low-fat diet (diet 12450B, Research Diets, Inc., New Brunswick, N.J., USA), whereas the experimental group was fed a 45% high-fat diet (diet 12451, Research Diets, Inc.) for 12 weeks. The compositions of the experimental diets are given in previous studies. After 8 weeks, the high-fat treated mice were randomly subdivided into four groups (n=9) including PTA1 (0.06 g/kg/day), PTA2 (0.12 g/kg/day) or rosiglitazone (Rosi; 1% methylcellulose, 10 mg/kg body weight) (GlaxoSmithKline) or vehicle and treated by oral gavage one time per day from the 9th to 12th weeks, while the mice were still on the high-fat diet, whereas the CON and high-fat control (HF) mice were treated with vehicle only. At the end, food was withheld from the animals (from 10 p.m. to 10 a.m.). The next day, the mice were sacrificed for blood and tissue collection and analysis. Livers, skeletal muscles, and white adipose tissues (WATs) (including epididymal, mesenteric, and retroperitoneal WAT) were weighed and excised, followed by immediate freezing, and kept at −80° C. for target gene analysis. Heparin (30 units/mL) (Sigma) was added to blood samples. Plasma samples were collected within 30 min by centrifugation at 1600 g for 15 min at 4° C. Plasma was obtained for insulin and leptin assay.
Small pieces of epididymal WAT and liver tissue were fixed with formalin (200 g/kg) neutral buffered solution and embedded in paraffin. Sections (8 μm) were cut and stained with hematoxylin and eosin. For microscopic examination, a microscope (Leica, DM2500) was used, and the images were taken using a Leica Digital camera (DFC-425-C).

[3] = hepatic lipids in high-fat diet-fed mice; conditions: HF diet-fed C57BL/6J mice, Rosi 0.01 g/kg/day oral gavage 4 weeks; mean ± SE, n=9
Description: as §1
Hepatic lipids were extracted using a previously described protocol. For the hepatic lipid extraction, 0.375 g liver samples were homogenized with 1 mL of distilled water for 5 min. Finally, the dried pellet was resuspended in 0.5 mL of ethanol and analyzed using a triglycerides kit as used for serum lipids.

CN(CCOc1ccc(CC2SC(=O)NC2=O)cc1)c1ccccn1 (stereo not drawn) [Rosi, rosiglitazone, reference compound]
blood glucose ([1]; week 12): 89.7 mg/dL | Blood profiles: FFA (plasma free fatty acid) ([1]; mean ± SE, n=9): 1.85 ± 0.28 mequiv/L | Blood profiles: Insulin ([1]; mean ± SE, n=9): 56.4 ± 13.8 μU/mL | Blood profiles: Leptin ([1]; mean ± SE, n=9): 2.15 ± 0.099 ng/mL | Blood profiles: TC (total cholesterol) ([1]; mean ± SE, n=9): 140.7 ± 14.1 mg/dL | average area of adipocytes (epididymal WAT) [2]: 4574.4±162.7 μm^2 | hepatocellular ballooning mean score ([2]; grade 0 none, 1 a few cells, 2 many cells): 0.9±0.2 | Liver lipids: Total lipid [3]: 74.7 ± 5.7 mg/g | Liver lipids: Triacylglycerol [3]: 43.8 ± 4.7 µmol/g
